Positions of bridges follow the written chain, without caps; N, C: chain ends. Residues, ends and D or L forms follow the SMILES beside them. Chains are numbered I, II in the order given. *: point of attachment. FITC = O=C1OC2(c3ccc(O)cc3Oc3cc(O)ccc32)c2ccc(NC(=S)*)cc21
How the values were obtained:
[1] = target: T1, CCL8_HUMAN (Homo sapiens, UniProt P80075); assay: Neutralisation of chemokine induced THP-1 cell migration; assay type: cell-based
T1 sequence (P80075 24-99): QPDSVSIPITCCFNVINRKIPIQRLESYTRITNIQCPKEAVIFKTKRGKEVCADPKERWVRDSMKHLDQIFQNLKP
Protocol: Table 1. Tick CKBPs described in PCT/GB2017/050563 and [17]. Tick peptide sequences isolated in yeast surface display fluorescent-activated cell sorting (FACS) screens using a labelled chemokine. Identity with Evasin-1, 4 or 3 was calculated using BLAST. Abbreviations: IXORI—Ixodes ricinus, RHISA—Rhipicephalus sanguineus, AMBMA—Amblyomma maculatum, AMBPA—Amblyomma parvum, AMBTR—Amblyomma triste, AMBAM—Amblyomma americanum, AMBCA—Amblyomma cajennense, RHIPU—Rhipicephalus pulchellus. Table 2A-C. Binding characteristics of tick CKBPs previously disclosed (PCT/GB2017/050563 and [17]). All members of the human chemokine family[164] are listed in column 1. Binding to human chemokines was determined for 14 tick CKBPs using biolayer interferometry (BLI) with calculated Kd shown as Molar (Moles/Litre). Binding data for 17 other novel tick CKBPs was assayed using yeast surface display[17,166],with positive binding results shown as “YES”. For biolayer interferometry, His-tagged purified tick CKBP was bound to a Ni-NINTA sensor on an OctetRed® 384 system, and then binding to each chemokine listed (with the exception of CCL25, CCL26, CXCL16, CXCL17, CXCL4L1, XCL2) was assayed in a cross-binding screen at a chemokine concentration of 300 nM as described. For those chemokines showing binding to a tick CKBP in the cross-binding screen, binding assays were repeated using different doses of chemokine. Association, equilibrium and dissociation data were analysed using Octet software to create corresponding fitted curves, and used to calculate Kd. For yeast surface display, (YSD) background fluorescence was controlled for by using either an empty vector or by omitting the chemokine (i.e. using streptavidin-Alexa647 alone). An arbitrary threshold of >3 fold over background mean fluorescence intensity was chosen to describe confirmed re-tests. Where binding was detected data are indicated as “YES”. […] For yeast surface display data, empty cells represent chemokines that were not tested. Binding data published in relation to previously described tick CKBPs (Evasins-1, 4 and 3) is also shown for comparison in each of FIGS. 2A-C, with the relevant data obtained from publications: [20-22,32]. Table 3: Neutralisation of human chemokines by tick CKBPs previously disclosed (PCT/GB2017/050563 and [17]). Neutralising activity was determined using a quantitative THP1 cell migration assay in a 96-well Boyden chamber with chemokine in the bottom chamber as described. Cells migrating through to the bottom chamber at 4 hours were counted using flow cytometry in a 96 well plate format. IC50 for neutralisation was determined at the chemokine EC80 dose as determined using a range of tick CKBP concentrations. Data was analysed using GraphPad Prism to determine IC50, which is shown as Molar (Moles/Litre). Empty cells represent experiments not done. Table 4—Other previously described tick CKBPs. Tick CKBPs that were also described in PCT/GB2017/050563 and Singh et al. are indicated in “Notes”. Table 5.—Novel tick CKBPs of the invention. Table 6. […] The peptide sequence prefix indicates the identity, and suffix indicate the tick species as follows: AMBCA, Amblyomma cajennense and IXORI, Ixodes ricinus. […] Individual yeast clones recovered from the library were re-tested using a FACS (fluorescence activated cell sorting), experiment. The binding of the peptide to the chemokine was assayed by measuring the percent (%), of yeast cells expressing the given peptide that exceeded a background threshold set by measuring the fluorescence of the yeast library pool treated with streptavidin-[…] alone. When more than one independent yeast clone was isolated for a given peptide-chemokine combination, the mean percent shift was calculated and reported in column 3.

[2] = target: T2, human CCL8-647 (Homo sapiens, UniProt P80075); assay: Fluorescent chemokine binding to THP-1 cells (flow cytometry); assay type: cell-based
T2 construct: purchased Almac (UK)
T2 sequence (P80075 24-99): T1 sequence (P80075 24-99)
Protocol: P672_PEP_SCRAM (C-terminally amidated)=[…] FIG. 16(A). […] 60 μM (+) P672_PEP or P672_PEP_SCRAM were incubated with CCL8-647 (2.5 nM) for half an hour at 37° C. prior to adding to THP-1 cells and incubating everything together for a further half an hour at 37° C. Cells were then analysed using fluorescence assisted cell sorting (10,000 cells analysed) and MFI recorded. Experiment carried out in triplicate where each data point is the average of one experiment carried out in technical triplicate. Mean with SEM shown and statistical significance was determined using one-way ANOVA with Sidak's correction for multiple comparisons using Graph Pad Prism 6. ****=P<0.00005, ns=not significant.
Data are shown as mean of two technical replicates. […] Curves were fitted with 4 parameters to estimate IC50.
Fluorescent chemokine (conjugated to AlexaFluor-647) binding to THP-1 cells results in an increase in the cellular fluorescence intensity, which is quantitatively measured using flow cytometry.
Fluorescent Chemokine/Receptor Blocking Assay CCL8-647 (2.5 nM, final) or […] (1.2 nM, final) was incubated for 30 minutes with varying doses of peptide (0-100 μM, final concentration) in 50 μL assay buffer (RPMI-1640+L-glutamine (4 mM)+10% heat treated fetal bovine serum+0.2% DMSO) at 37° C. […]

[3] = target: T3, CCL8 (Homo sapiens, UniProt P80075); assay: Fluorescence polarisation (anisotropy) assay; assay type: binding; conditions: BK1.1FITC Ala mutants, CCL8
T3 construct: SUMO (in-house protein only) (cleaved yes); made in house; host or cells: Escherichia coli RosettaGami 2 (DE3)
T3 sequence (P80075 24-99): T1 sequence (P80075 24-99)
From the text: FIG. 14. Characterisation of P672_PEP-FITC by fluorescence polarisation. […] Residue C30 was mutated to A to avoid an unpaired cysteine residue. The residues corresponding to the above peptide are wholly contained within the CCL8-binding region of P672_RHIPU transferred in the hybrid evasin P672:EVA1 (SEQ ID 76, see FIG. 5). […] (SEQ ID NO: 90). FIG. 14(A). […] The curve was fitted to the two site-total and non-specific binding model in GraphPad Prism 6. Data are shown as mean and SEM of three independent experiments, with each independent experiment performed as three technical replicates. The affinity constant Kd was calculated in GraphPad Prism from the curve fit with the standard error reported.
FIG. 14(B). […] The measured fluorescence anisotropy (y-axis) of P672_PEP-FITC (50 nM) following binding to a fixed dose (1 μM)) of CCL7, CCL8, CCL18 and CXCL1 (negative control). […] Statistical significance was determined using one-way ANOVA with Sidak's correction for multiple comparisons using Graph Pad Prism 6. **=p<0.005, ****=P<0.00005, ns=not significant.
FIG. 15(C). […] In each case 100 μM (++) or […] (+) of P672_PEP was incubated with P672_PEP-FITC (50 nM)/chemokine (1 μM CCL7 and CCL18; 500 nM CCL8) and the resulting anisotropy measured. […] Experiment carried out in triplicate where each data point is the average of one experiment carried out in technical triplicate. Mean with SEM shown and statistical significance was determined using one-way ANOVA with Sidak's correction for multiple comparisons using Graph Pad Prism 6. *=p<0.05, ***=p<0.0005, ****=P<0.00005, ns=not significant.
Fluorescence polarization assays were performed using a Clariostar (BMG Tech) plate reader with the supplied FITC excitation and emission filters using 96 half area well plates (Corning). The buffer used (FP assay buffer) was 50 mM HEPES, 150 mM NaCl, 0.1% BSA, 0.002% TWEEN-20, 0.2% DMSO, pH 7.4 and the final volume in each well was 30 μL. Polarization was converted to anisotropy using the equation A=(2*P)/(3−P) where P is polarization and A is anisotropy. For each peptide tested the gain was set to 35 mP and adjusted to a well containing fluorescent peptide only. The polarization of the emitted light in the FITC emission channel was then determined. Experiments were performed as two technical and three biological replicates. Screening of P672 peptide fragments was achieved through incubation of each peptide (50 nM) with 1 μM CCL8 (Peprotech) for 30 minutes in FP assay buffer and the resulting anisotropy of the emitted light determined as above. The chemokine cross binding screen was performed by incubating 1 μM chemokine (Peprotech) with 50 nM BK1.1FITC for half an hour in FP assay buffer and the resulting anisotropy of the emitted light determined as above. […] The anisotropy was plotted as a function of CCL8 concentration and fitted to the equation: Y=Bmax*X/(KD+X)+NS*X+Background, where Y is the measured anisotropy, X is the concentration of CCL8 added, Bmax is the maximum binding, KD is the equilibrium dissociation constant, NS is the slope of the nonlinear regression and Background is the anisotropy when no CCL8 is present, in Graph Pad Prism. Displacement assays were carried out with CCL7, CCL8, and CCL18 (Peprotech, 1 μM). […] For all FP assays, the experiments were carried out as two technical and three biological replicates.

Row | Structure (SMILES) | IC50 [1] [nM] | IC50 [2] [nM] | Fold change (Kd versus WT) [3]
1 | CC(C)[C@H](NC(=O)[C@@H]1CCCN1C(=O)[C@H](CCCCN)NC(=O)[C@H](Cc1ccccc1)NC(=O)[C@H](Cc1ccccc1)NC(=O)[C@H](CC(=O)O)NC(=O)[C@H](CCC(=O)O)NC(=O)[C@H](Cc1ccc(O)cc1)NC(=O)[C@H](CC(=O)O)NC(=O)[C@H](CCC(=O)O)NC(=O)[C@H](CC(=O)O)NC(=O)[C@H](CCC(=O)O)NC(=O)[C@@H](N)Cc1ccc(O)cc1)C(=O)N[C@H](C(=O)N[C@@H](CSSC[C@H](NC(=O)[C@@H](NC(=O)[C@@H](NC(=O)[C@@H]1CCCN1C(=O)[C@H](CCCCN)NC(=O)[C@H](Cc1ccccc1)NC(=O)[C@H](Cc1ccccc1)NC(=O)[C@H](CC(=O)O)NC(=O)[C@H](CCC(=O)O)NC(=O)[C@H](Cc1ccc(O)cc1)NC(=O)[C@H](CC(=O)O)NC(=O)[C@H](CCC(=O)O)NC(=O)[C@H](CC(=O)O)NC(=O)[C@H](CCC(=O)O)NC(=O)[C@@H](N)Cc1ccc(O)cc1)C(C)C)[C@@H](C)O)C(=O)N[C@@H](Cc1ccc(O)cc1)C(=O)N[C@@H](Cc1ccccc1)C(N)=O)C(=O)N[C@@H](Cc1ccc(O)cc1)C(=O)N[C@@H](Cc1ccccc1)C(N)=O)[C@@H](C)O [BK1.3] (I: H-YEDEDYEDFFKPVTCYF-NH2 / II: H-YEDEDYEDFFKPVTCYF-NH2; disulfide I:15-II:15) | 8 | 47 | 
2 | C[C@H](NC(=O)[C@@H](NC(=O)[C@H](C)NC(=O)[C@@H]1CCCN1C(=O)[C@H](CCCCN)NC(=O)[C@H](Cc1ccccc1)NC(=O)[C@H](Cc1ccccc1)NC(=O)[C@H](CC(=O)O)NC(=O)[C@H](CCC(=O)O)NC(=O)[C@H](Cc1ccc(O)cc1)NC(=O)[C@H](CC(=O)O)NC(=O)[C@H](CCC(=O)O)NC(=O)[C@H](CC(=O)O)NC(=O)[C@H](CCC(=O)O)NC(=S)Nc1ccc2c(c1)C(=O)OC21c2ccc(O)cc2Oc2cc(O)ccc21)[C@@H](C)O)C(=O)N[C@@H](Cc1ccc(O)cc1)C(=O)N[C@@H](Cc1ccccc1)C(N)=O [V28A] ({FITC}-EDEDYEDFFKPATAYF-NH2) |  |  | 3.8
3 | CC(C)[C@H](NC(=O)[C@@H]1CCCN1C(=O)[C@H](CCCCN)NC(=O)[C@H](Cc1ccccc1)NC(=O)[C@H](Cc1ccccc1)NC(=O)[C@H](CC(=O)O)NC(=O)[C@H](CCC(=O)O)NC(=O)[C@H](C)NC(=O)[C@H](CC(=O)O)NC(=O)[C@H](CCC(=O)O)NC(=O)[C@H](CC(=O)O)NC(=O)[C@H](CCC(=O)O)NC(=S)Nc1ccc2c(c1)C(=O)OC21c2ccc(O)cc2Oc2cc(O)ccc21)C(=O)N[C@H](C(=O)N[C@@H](C)C(=O)N[C@@H](Cc1ccc(O)cc1)C(=O)N[C@@H](Cc1ccccc1)C(N)=O)[C@@H](C)O [Y21A] ({FITC}-EDEDAEDFFKPVTAYF-NH2) |  |  | 4.7
4 | CC(C)[C@H](NC(=O)[C@@H]1CCCN1C(=O)[C@H](CCCCN)NC(=O)[C@H](Cc1ccccc1)NC(=O)[C@H](Cc1ccccc1)NC(=O)[C@H](CC(=O)O)NC(=O)[C@H](CCC(=O)O)NC(=O)[C@H](Cc1ccc(O)cc1)NC(=O)[C@H](CC(=O)O)NC(=O)[C@H](CCC(=O)O)NC(=O)[C@H](CC(=O)O)NC(=O)[C@H](CCC(=O)O)NC(=S)Nc1ccc2c(c1)C(=O)OC21c2ccc(O)cc2Oc2cc(O)ccc21)C(=O)N[C@H](C(=O)N[C@@H](C)C(=O)N[C@@H](C)C(=O)N[C@@H](Cc1ccccc1)C(N)=O)[C@@H](C)O [Y31A] ({FITC}-EDEDYEDFFKPVTAAF-NH2) |  |  | 3.8

— US20200247855A1, “THERAPY AND DIAGNOSTICS” (OXFORD UNIVERSITY INNOVATION LIMITED, priority 2017, published 2020)
